Measured values published in patent publication US7589096B2, “Azole derivatives” (Banyu Pharmaceutical Co., Ltd., priority 2002, dated 2009).
Structures can show the parent of a compound that is named as a salt. Where two headings read alike, the source gives them in different places.

Tests used:
human NPY Y5 receptor = molecular target: T1, human NPY Y5 receptor (Homo sapiens, UniProt Q15761); assay: NPY binding inhibition test ([125I]peptide YY binding to membranes of NPY Y5 receptor expression cells); conditions: [125I]peptideYY, membrane sample, 25° C., 2 hours; read-out: IC50 against specific peptide YY binding
T1 construct: expressed in transfected cells; host or cells: COS-7, CHO and LM(tk-)
T1 sequence (Q15761 1-445): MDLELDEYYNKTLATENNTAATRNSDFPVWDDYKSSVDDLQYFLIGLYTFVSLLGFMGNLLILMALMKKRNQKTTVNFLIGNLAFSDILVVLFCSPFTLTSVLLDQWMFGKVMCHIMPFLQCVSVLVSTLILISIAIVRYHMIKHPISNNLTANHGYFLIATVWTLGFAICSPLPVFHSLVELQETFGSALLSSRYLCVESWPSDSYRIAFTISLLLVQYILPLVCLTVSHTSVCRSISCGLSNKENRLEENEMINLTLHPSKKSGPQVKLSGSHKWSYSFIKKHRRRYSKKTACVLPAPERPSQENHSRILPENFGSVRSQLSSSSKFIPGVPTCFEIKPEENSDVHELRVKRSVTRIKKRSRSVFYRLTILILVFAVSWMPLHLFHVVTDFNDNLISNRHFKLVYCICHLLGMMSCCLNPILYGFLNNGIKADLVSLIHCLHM
Source text: cDNA sequence encoding human NPY Y5 receptor (cf. International patent publication number WO96/16542) was cloned into expression vectors pcDNA3, pRc/RSV (made by invitrogen Inc.) and pCI-neo (made by Promega Inc.). The expression vectors thus obtained were transfected to host cells COS-7, CHO and LM(tk-) (American Type Culture Collection) by cationic lipid method (Proceedings of the National Academy of Sciences of the United States of America, 84: 7413 (1987)) to give NPY Y5 receptor expression cells.
A membrane sample prepared from the cells which expressed NPY Y5 receptor was incubated together with a test compound and [^125I]peptideYY (made by NEN) (20,000 cpm) in man assay buffer (25 mM Tris buffer, pH 7.4, containing 10 mM magnesium chloride, 1 mM phenylmethylsulfonyl fluoride, 0.1% bacitracin and 0.5% bovine serum albumin) at 25° C. for 2 hours, then filtered through a glass filter GF/C and washed with 5 mM Tris buffer (pH7.4) containing 0.3% BSA. The radioactivity of the cake on the glass filter was measured. Non-specific binding was measured in the presence of 1 μM peptide YY, and a 50% Inhibitory Concentration (IC50) of the test compound against specific peptide YY binding was determined (Endocrinology; 131: 2090 (1992)).

[1] = Brain/cerebrospinal fluid transport test; format: in vivo; conditions: male SD rats, 2 hours after oral administration (10 mg/kg); for concentration at 2 h: rat
Method: A test compound was orally or intravenously administered to male SD rats (7-10 weeks old, 200-400 g), and whole blood was collected from the abdominal aorta of said rats anesthetized with ether at predetermined time, using a heparin-treated syringe. Then, the head skin was cut open, and a dental 30 G needle was inserted between the cervical vertebrae, and it was further inserted into the cavum subarachnoideale. After 50 to 100 μL cerebrospinal fluid had been collected by a 1 ml-syringe through a tube connected to said dental 30 G needle, the brain was extracted. The blood sample was centrifuged (4° C., 6,000 r.p.m., 10 minutes) to collect the plasma, to which was added 3-fold amount of ethanol containing an internal standard, and the mixture was stirred. The brain sample was homogenized after addition of 2 ml water, an aliquot of the homogenate was taken and 3-fold amount of ethanol containing an internal standard was added thereto and stirred. The cerebrospinal fluid was stirred after adding 3-fold amount of ethanol containing an internal standard. The samples thus obtained were allowed to stand at −20° C. for 20 minutes, and then centrifuged (4° C., 12,000 g, 10 minutes). The supernatant was analyzed by LC/MS/MS, and the concentration of the test compound in the plasma, brain, and cerebrospinal fluid were measured by the method using a relative calibration curve.

SMILES | IC50 (human NPY Y5 receptor) [nM] | other results
O=C1OC2(CCN(c3nc(-c4ccc5ccccc5c4)c[nH]3)CC2)c2ccccc21 [Example 1, 4-(2-naphthyl)-2-[3-oxospiro[isobenzofuran-1(3H),4′-piperidin]-1′-yl]-1H-imidazole hydrochloride] | 1.7 | –
O=C1OC2(CCN(c3cc(-c4ccnc(-c5ccccc5)c4)[nH]n3)CC2)c2ccccc21 [Example 14, 3-[3-oxospiro[isobenzofuran-1(3H),4′-piperidin]-1′-yl]-5-(2-phenylpyridin-4-yl)-1H-pyrazole] | 1.7 | –
O=C1OC2(CCN(c3cc(-c4ccnc(-c5ccccc5)n4)[nH]n3)CC2)c2ccccc21 [Example 19, 3-[3-oxospiro[isobenzofuran-1(3H),4′-piperidin]-1′-yl]-5-(2-phenylpyrimidin-4-yl)-1H-pyrazole] | 1.6 | –
O=C1OC2(CCC(c3cc(-c4ccnc(-c5ccccc5)n4)[nH]n3)CC2)c2ccccc21 (stereo not drawn) [Example 23, trans-3-[3′-oxospiro[cyclohexane-1,1′(3′H)-isobenzofuran]-4-yl]-5-(2-phenylpyrimidin-4-yl)-1H-pyrazole] | 2.7 | –
O=C1OC2(CCC(c3cc(-c4cncc(-c5ccccc5)n4)[nH]n3)CC2)c2ccccc21 (stereo not drawn) [Example 24, trans-3-[3′-oxospiro[cyclohexane-1,1′(3′H)-isobenzofuran]-4-yl]-5-(6-phenylpyrazin-2-yl)-1H-pyrazole] | 3.9 | –
O=C1OC2(CCC(c3cc(-c4ccnc(-c5ccccc5)n4)[nH]n3)CC2)c2cnccc21 (stereo not drawn) [Example 29, trans-3-[3-oxospiro[6-azaisobenzofuran-1(3H),1′-cyclohexan]-4′-yl]-5-(2-phenylpyrimidin-4-yl)-1H-pyrazole] | 3.9 | concentration in the brain [1]: 3.01 nmol/g; concentration at 2 h ([1]; cerebrospinal fluid, read-out: concentration in the cerebrospinal fluid): 15 nM; concentration at 2 h ([1]; plasma, read-out: concentration in the plasma): 1160 nM

Second part, led by results:

IC50 (human NPY Y5 receptor) [nM] | SMILES | other results
4.2 | O=C1OC2(CCN(c3nc(-c4ccc5ccccc5c4)n[nH]3)CC2)c2ccccc21 [Example 30, 3-(2-naphthyl)-5-[3-oxospiro[isobenzofuran-1-(3H),4′-piperidin]-1′-yl]-1H-1,2,4-triazole] | –
3.5 | O=C1OC2(CCC(c3nn4nc(-c5ccccc5F)cc4[nH]3)CC2)c2cnccc21 (stereo not drawn) [Example 34, trans-6-(2-fluorophenyl)-2-[3-oxospiro[6-azaisobenzofuran-1(3H),1′-cyclohexan]-4′-yl]-1H-pyrazolo[2,3-b][1,2,4]-triazole] | –
3.3 | O=C1OC2(CCC(c3nn4nc(-c5ccccc5)cc4[nH]3)CC2)c2cnccc21 (stereo not drawn) [Example 35, trans-2-[3-oxospiro[6-azaisobenzofuran-1(3H),1′-cyclohexan]-4′-yl]-6-phenyl-1H-pyrazolo[2,3-b][1,2,4]triazole] | –
1.8 | O=C1OC2(CCC(c3nn4nc(-c5ccccc5)cc4[nH]3)CC2)c2ccccc21 (stereo not drawn) [Example 36, trans-2-[3′-oxospiro[cyclohexane-1,1′(3′H)-isobenzofuran]-4-yl]-6-phenyl-1H-pyrazolo[2,3-b][1,2,4]triazole] | –
1.5 | O=C1OC2(CCN(c3cc(-c4ccnc(-c5ccccc5)n4)[nH]n3)CC2)c2cnccc21 [Example 45, 3-[3-oxospiro[6-azaisobenzofuran-1(3H),4′-piperidin]-1′-yl]-5-(2-phenylpyrimidin-4-yl)-1H-pyrazole] | –
1.5 | O=C1OC2(CCN(c3cc(-c4ccnc(-c5ccccc5F)n4)[nH]n3)CC2)c2cnccc21 [Example 46, 3-[3-oxospiro[6-azaisobenzofuran-1(3H),4′-piperidin]-1′-yl]-5-[2-(2-fluorophenyl)pyrimidin-4-yl]-1H-pyrazole] | –
2.2 | O=C1OC2(CCN(c3cc(-c4ccnc(-c5ccc(F)cc5)n4)[nH]n3)CC2)c2cnccc21 [Example 47, 3-[3-oxospiro[6-azaisobenzofuran-1(3H),4′-piperidin]-1′-yl]-5-[2-(4-fluorophenyl)pyrimidin-4-yl]-1H-pyrazole] | –
